Data: BindingDB's records for patent US8563553 (Novartis, 2013)

Molecular target: Serine/threonine-protein kinase B-raf [V600E] (Homo sapiens, UniProt P15056, V600E)
Experiment: Raf/Mek Amplified Luminescence Proximity Homogeneous Assay
Conditions: pH 7.5
From the text: Raf/Mek amplified luminescence proximity homogeneous assay.

Chain of Serine/threonine-protein kinase B-raf [V600E] (P15056 2-766 V600E limits assumed): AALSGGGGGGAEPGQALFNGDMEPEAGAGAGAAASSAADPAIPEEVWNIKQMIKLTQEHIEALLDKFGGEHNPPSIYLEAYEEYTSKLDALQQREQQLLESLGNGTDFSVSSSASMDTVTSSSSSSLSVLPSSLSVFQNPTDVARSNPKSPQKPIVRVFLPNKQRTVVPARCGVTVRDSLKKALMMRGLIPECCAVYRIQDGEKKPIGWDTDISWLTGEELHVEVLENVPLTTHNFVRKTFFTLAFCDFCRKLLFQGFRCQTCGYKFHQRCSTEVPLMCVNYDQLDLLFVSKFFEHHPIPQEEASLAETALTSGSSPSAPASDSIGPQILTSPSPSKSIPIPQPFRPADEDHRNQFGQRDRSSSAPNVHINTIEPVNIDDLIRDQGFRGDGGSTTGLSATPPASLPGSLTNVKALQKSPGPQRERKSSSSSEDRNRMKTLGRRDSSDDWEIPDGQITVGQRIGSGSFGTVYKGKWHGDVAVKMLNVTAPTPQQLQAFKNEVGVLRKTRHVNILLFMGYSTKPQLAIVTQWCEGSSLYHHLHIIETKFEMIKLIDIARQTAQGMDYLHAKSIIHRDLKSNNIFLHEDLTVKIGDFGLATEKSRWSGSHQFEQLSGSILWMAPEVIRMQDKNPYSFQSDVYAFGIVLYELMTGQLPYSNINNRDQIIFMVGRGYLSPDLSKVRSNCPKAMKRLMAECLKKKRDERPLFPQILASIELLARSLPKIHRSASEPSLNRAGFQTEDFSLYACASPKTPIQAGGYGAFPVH

IC50: 235 nM
Structure (SMILES): COC(=O)N[C@@H](C)CNc1nccc(-c2nc(C(C)(C)C)[nH]c2-c2cc(Cl)cc(NS(=O)(=O)C(F)(F)F)c2)n1 [US8563553, 52]
